# Measured values taken from patent EP3293246A1, “LUBRICANT COMPOSITIONS CONTAINING DIUREA COMPOUNDS” (BASF SE, priority 2016, dated 2018).
# Test: Solubility 0.5% in base oil Yubase 4, visual inspection of appearance
# Type: physicochemical
# Conditions: 0.5 g compound stirred with 99.5 g Yubase 4 at 100°C for 4 hours, cooled to room temperature
# Protocol: For the determination of the solubilities, 0.5 g of the compound under test was stirred with 99.5 g of Yubase 4 at 100°C for 4 hours and subsequently cooled to room temperature. The appearance of the solution was assessed by visual inspection.
row,Solubility 0.5% in Yubase 4; visible appearance,Structure (SMILES)
1,no clear solution,CCCCC(CC)CNC(=O)Nc1ccc(C)c(NC(=O)NCC(CC)CCCC)c1 (stereo not drawn) [Example 1]
2,no clear solution,CCCCCCCCC=CCCCCCCCCNC(=O)Nc1ccc(C)c(NC(=O)NCCCCCCCCC=CCCCCCCCC)c1 [Example 5]
3,no clear solution,Cc1ccc(NC(=O)NC(C)CCCC(C)C)cc1NC(=O)NC(C)CCCC(C)C (stereo not drawn) [Example 6]
